Series [1] concerns Glomerella lagenarium (Colletotrichum lagenarium). Kind of series: Glomerella lagenarium (Colletotrichum lagenarium) / liquid culture (anthracnose). It counts as cell-based. The settings on record: Colletotrichum orbiculare, PDB, 24° C., 3-4 days after application, read-out: control of Glomerella lagenarium (inhibition of growth, photometric). The method, boiled down: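 Test compound, delivered in DMSO at an application rate of 200 ppm, was combined with spore-containing PDB. Photometric growth-inhibition measurement followed 3-4 days of incubation at 24° C.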

The test system of another series is Gaeumannomyces graminis. Kind of series: Gaeumannomyces graminis / liquid culture (take-all of cereals). It counts as cell-based. To be noted: PDB, 24° C., 4-5 days after application, read-out: control of Gaeumannomyces graminis (inhibition of growth, photometric). The method in brief: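 Growth inhibition, measured by photometry 4-5 days post-application at 24 °C, of fungal mycelial fragments in PDB broth. Test compound applied as DMSO solution at 200 ppm.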

The next series concerns Pyrenophora teres. Kind of series: Pyrenophora teres / barley / leaf disc preventative (net blotch). It counts as in vivo. The settings on record: foliar, barley leaf segments cv Hasso, inoculated two days after application, assessed 5-7 days after application, read-out: control of Pyrenophora teres (disease control compared to untreated). The method, boiled down:
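Preventative leaf-disc test: 200 ppm spray, then spore inoculation after two days on barley cv Hasso segments. Incubation 20 °C, 65% relative humidity, 12 h light/12 h dark; efficacy rated against untreated checks at 5-7 days post-application.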

Series [2] has as its system Mycosphaerella graminicola (Septoria tritici). Kind of series: Mycosphaerella graminicola (Septoria tritici) / liquid culture (Septoria blotch). It counts as cell-based. To be noted: Zymoseptoria tritici, PDB, 24° C., 4-5 days after application, read-out: control of Mycosphaerella graminicola (inhibition of growth, photometric). The method, boiled down:
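Growth inhibition was read photometrically after 4–5 days at 24 °C. The test compound was applied at 200 ppm from DMSO solution, then PDB broth seeded with conidia taken straight from cryogenic storage was added.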

The test system of series [3] is Puccinia recondita f. sp. Tritici. Nature of the series: Puccinia recondita f. sp. tritici / wheat / leaf disc preventative (brown rust). In kind it is in vivo. To be noted: foliar, wheat leaf segments cv Kanzler, inoculated 1 day after application, assessed 7-9 days after application, read-out: control of Puccinia recondita f. sp. Tritici (percent disease control compared to untreated). The method in brief: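 Preventative test: percent disease control relative to untreated leaf segments was assessed 7-9 days post-application. Wheat (cv Kanzler) leaf discs were treated at 200 ppm and spore-inoculated 1 day afterwards. Discs were held at 19° C and 75% relative humidity under a 12/12 h light cycle.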

The test system of series [4] is Botryotinia fuckeliana (Botrytis cinerea). Kind of series: Botryotinia fuckeliana (Botrytis cinerea) / liquid culture (gray mould). In kind it is cell-based. To be noted: Vogels broth, 24° C., 3-4 days after application, read-out: control of Botryotinia fuckeliana (inhibition of growth, photometric). The method in brief:
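Test compound was applied at 200 ppm in DMSO, then Vogels nutrient broth containing cryo-stored B. cinerea conidia was added. Photometric growth-inhibition reading followed after 3-4 days at 24 °C.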

The subject of series [5] is Thanatephorus cucumeris (Rhizoctonia solani). Nature of the series: Thanatephorus cucumeris (Rhizoctonia solani) / liquid culture (foot rot, damping-off). It counts as cell-based. The settings on record: PDB, 24° C., 3-4 days after application, read-out: control of Thanatephorus cucumeris (inhibition of growth, photometric). The method in brief:
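At 200 ppm, compounds in DMSO were combined with fresh liquid-culture mycelia in PDB and kept at 24° C; photometric measurement of growth inhibition after 3-4 days.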

Each structure is given as a SMILES string.

What is called melting point is the temperature, or range, at which the solid turns liquid. In general, inhibition refers to the change of the read-out against control, counted positive when it falls. Regarding `Nc1nc(C(F)(F)F)nn1-c1nc2cnccc2n1C1CCCCC1` [Compound 3, 2-(1-cyclohexylimidazo[4,5-c]pyridin-2-yl)-5-(trifluoromethyl)-1,2,4-triazol-3-amine], the melting point was in the range of 203 to 206 °C. In addition, the inhibition at 20 ppm in series [1] was at least 80%.
`Cc1nc(N)n(-c2nc3cnccc3n2C2CCCCC2)n1` [Compound 5, 2-(1-cyclohexylimidazo[4,5-c]pyridin-2-yl)-5-methyl-1,2,4-triazol-3-amine] came in with a melting point of 212 to 215 °C. The inhibition at 20 ppm in the series with Gaeumannomyces graminis was at least 80%. For the same molecule, the pest or weed control at 200 ppm with Pyrenophora teres was at least 80%.
For the molecule `CCc1nc(N)n(-c2nc3cnccc3n2C2CCCCC2)n1` [Compound 7, 2-(1-cyclohexylimidazo[4,5-c]pyridin-2-yl)-5-ethyl-1,2,4-triazol-3-amine], the melting point fell in the range of 198 to 203 °C. Moreover, the inhibition at 20 ppm in series [1] was at least 80%.
The molecule `Nc1nc(C2CC2)nn1-c1nc2cnccc2n1C1CCCCC1` [Compound 8, 2-(1-cyclohexylimidazo[4,5-c]pyridin-2-yl)-5-cyclopropyl-1,2,4-triazol-3-amine] came in with a melting point of 196 to 199 °C. In addition, in series [1], the inhibition at 20 ppm was at least 80%.
`Cn1c(-n2ncnc2N)nc2cnccc21` [Compound 14, 2-(1-methylimidazo[4,5-c]pyridin-2-yl)-1,2,4-triazol-3-amine] gave a melting point of 240 to 244 °C. Also, in the series on Gaeumannomyces graminis, the inhibition at 20 ppm is at least 80%. In the series on Pyrenophora teres, the pest or weed control at 200 ppm was at least 80%.
`C=CCn1c(-n2ncnc2N)nc2cnccc21` [Compound 17, 2-(1-prop-2-enylimidazo[4,5-c]pyridin-2-yl)-1,2,4-triazol-3-amine] came in with a melting point of 215 to 216 °C. In addition, the inhibition at 20 ppm in series [2] was at least 80%. The pest or weed control at 200 ppm in series [3] was at least 80%. Moreover, the inhibition at 20 ppm in the series with Gaeumannomyces graminis was at least 80%. In addition, the inhibition at 20 ppm in series [4] is at least 80%. Also, in series [5], the inhibition at 20 ppm was at least 80%. The pest or weed control at 200 ppm in the series on Pyrenophora teres was at least 80%.
The molecule `CCn1c(-n2ncnc2N)nc2cncc(C=Cc3ccccc3)c21` [Compound 21, 2-[1-ethyl-7-(2-phenylethenyl)imidazo[4,5-c]pyridin-2-yl]-1,2,4-triazol-3-amine] returned a melting point of 247 to 252 °C. The inhibition at 20 ppm in series [2] was at least 80%. The inhibition at 20 ppm in the series on Gaeumannomyces graminis is at least 80%. The inhibition at 20 ppm in series [5] is at least 80%.
In the case of `CCn1c(-n2ncnc2N)nc2cncc(-c3ccc(F)cc3)c21` [Compound 29, 2-[1-ethyl-7-(4-fluorophenyl)imidazo[4,5-c]pyridin-2-yl]-1,2,4-triazol-3-amine], the melting point lay in the range of 275 to 277 °C. Further, in series [2], the inhibition at 20 ppm is at least 80%. In the series on Gaeumannomyces graminis, the inhibition at 20 ppm is at least 80%. Also, the inhibition at 20 ppm in series [4] was at least 80%. The inhibition at 20 ppm in series [5] was at least 80%.
As for `CCn1c(-n2ncnc2N)nc2cncc(C(=O)C=Cc3ccc(F)cc3)c21` [Compound 108, 1-[2-(5-amino-1,2,4-triazol-1-yl)-1-ethylimidazo[4,5-c]pyridin-7-yl]-3-(4-fluorophenyl)prop-2-en-1-one], the melting point is 205 to 209 °C. For the same molecule, the inhibition at 20 ppm in series [2] is at least 80%. Besides, in the series on Gaeumannomyces graminis, the inhibition at 20 ppm is at least 80%. The inhibition at 20 ppm in series [5] is at least 80%. The pest or weed control at 200 ppm in the series on Pyrenophora teres was at least 80%.
Molecule `CCCn1c(-n2ncnc2N)nc2cncc(Br)c21` [Compound 110, 2-(7-bromo-1-propylimidazo[4,5-c]pyridin-2-yl)-1,2,4-triazol-3-amine] yielded a melting point of 207 to 208 °C. The inhibition at 20 ppm in series [2] is at least 80%. The pest or weed control at 200 ppm in series [3] was at least 80%. Besides, the inhibition at 20 ppm in series [4] is at least 80%. The inhibition at 20 ppm in series [5] was at least 80%. The pest or weed control at 200 ppm with Pyrenophora teres was at least 80%.
For the molecule `CCn1c(-n2ncnc2N)nc2cncc(C(C)=NOCc3ccccn3)c21` [Compound 142], the melting point lay in the range of 138 to 149 °C. For the same molecule, the inhibition at 20 ppm in the series on Gaeumannomyces graminis is at least 80%. Moreover, the inhibition at 20 ppm in series [5] was at least 80%. The pest or weed control at 200 ppm in the series with Pyrenophora teres was at least 80%.

Values taken from patent US9512120B2, “Microbicidally active imidazopyridine derivatives” (Syngenta Participations AG, priority 2013, dated 2016).
